Measurements from US9758524B2, “4-imidazopyridazin-1-yl-benzamides as Btk inhibitors” (Merck Sharp & Dohme B.V., priority 2011, dated 2017).
Like-named read-outs stand apart in the source and are kept apart here.

Experiments:
Lyn enzyme = Lyn enzyme (Homo sapiens (Human), UniProt P07948); assay: Lyn enzyme activity (IMAP fluorescence polarization assay)
Src enzyme = Src enzyme (Homo sapiens (Human), UniProt P12931); assay: Src enzyme activity (IMAP fluorescence polarization assay)
FynT enzyme = FynT enzyme (Homo sapiens (Human), UniProt P06241); assay: FynT enzyme activity (IMAP fluorescence polarization assay); format: biochemical; settings: 60 min pre-incubation, 0.2 μM ATP
Method in brief: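 Human FynT pre-incubated with compounds 60 min at room temperature, then reacted 2 h at room temperature with fluorescein-labelled p34cdc2 peptide (100 nM final). Stopped with IMAP binding solution; fluorescence polarization read after 60 min. Activity as % of ±ATP control difference; EC50 by curve fitting.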

Btk enzyme (His-Btk) = Btk enzyme (His-Btk) (Homo sapiens (Human), UniProt Q06187); assay: Btk enzyme activity (IMAP fluorescence polarization assay)
Experimental: Inhibition of kinase activity can be measured using the Immobilized Metal Assay for Phosphochemicals (IMAP) assay. IMAP is a homogeneous fluorescence polarization (FP) assay based on affinity capture of phosphorylated peptide substrates. IMAP uses fluorescein-labeled peptide substrates that, upon phosphorylation by a protein kinase, bind to so-called IMAP nanoparticles, which are derivatized with trivalent metal complexes.
Final peptide substrate concentration in assay is 50 nM.

Lck enzyme = Lck enzyme (Homo sapiens (Human), UniProt P06239); assay: Lck enzyme activity (IMAP fluorescence polarization assay)
[1] = read-out: EC50 Lyn activity values, 60 min pre-incubation, 2 μM ATP, bin bound in μM
[2] = read-out: EC50 Src activity values, IMAP, 60 min pre-incubation, 4 μM ATP
[3] = read-out: EC50 Btk activity values, IMAP, 60 min pre-incubation, 5 μM ATP, bin bound in nM
[4] = read-out: EC50 Lck activity values, IMAP, 60 min pre-incubation, 6 μM ATP, bin bound in μM
[5] = IMAP, 60 min pre-incubation, 5 μM ATP, bin bound in nM
[6] = IMAP, 60 min pre-incubation, 5 μM ATP, bin bound in μM

Chain of FynT enzyme (P06241 other isoform, or with tags, fused parts or gaps): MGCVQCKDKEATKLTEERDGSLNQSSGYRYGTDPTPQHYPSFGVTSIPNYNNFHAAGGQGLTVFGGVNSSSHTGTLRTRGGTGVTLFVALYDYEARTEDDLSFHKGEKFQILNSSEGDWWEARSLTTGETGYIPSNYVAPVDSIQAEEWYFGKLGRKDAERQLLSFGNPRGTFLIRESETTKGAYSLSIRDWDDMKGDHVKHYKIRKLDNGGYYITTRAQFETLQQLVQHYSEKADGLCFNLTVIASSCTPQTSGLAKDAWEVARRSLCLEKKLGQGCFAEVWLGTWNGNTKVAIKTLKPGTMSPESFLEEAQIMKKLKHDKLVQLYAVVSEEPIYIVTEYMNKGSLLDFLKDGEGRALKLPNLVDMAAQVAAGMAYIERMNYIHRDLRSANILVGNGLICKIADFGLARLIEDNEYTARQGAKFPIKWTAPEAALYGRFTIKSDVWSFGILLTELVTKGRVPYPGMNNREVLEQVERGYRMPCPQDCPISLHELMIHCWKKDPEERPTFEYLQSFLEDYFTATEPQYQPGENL
Chain of Lck enzyme (P06239 whole entry): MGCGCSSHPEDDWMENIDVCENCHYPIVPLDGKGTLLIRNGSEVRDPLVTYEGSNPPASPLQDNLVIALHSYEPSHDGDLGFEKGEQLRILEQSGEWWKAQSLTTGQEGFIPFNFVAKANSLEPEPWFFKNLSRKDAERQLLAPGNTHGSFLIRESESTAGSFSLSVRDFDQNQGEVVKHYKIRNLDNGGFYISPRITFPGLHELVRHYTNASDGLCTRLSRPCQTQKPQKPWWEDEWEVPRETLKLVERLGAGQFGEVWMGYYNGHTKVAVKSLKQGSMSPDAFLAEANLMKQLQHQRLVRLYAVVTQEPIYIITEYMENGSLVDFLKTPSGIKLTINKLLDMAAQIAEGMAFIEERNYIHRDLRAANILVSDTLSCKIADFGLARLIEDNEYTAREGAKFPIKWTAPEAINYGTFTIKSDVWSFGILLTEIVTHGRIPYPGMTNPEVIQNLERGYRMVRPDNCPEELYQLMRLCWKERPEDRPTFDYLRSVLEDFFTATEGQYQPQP
Chain of Src enzyme (P12931 whole entry, looked up): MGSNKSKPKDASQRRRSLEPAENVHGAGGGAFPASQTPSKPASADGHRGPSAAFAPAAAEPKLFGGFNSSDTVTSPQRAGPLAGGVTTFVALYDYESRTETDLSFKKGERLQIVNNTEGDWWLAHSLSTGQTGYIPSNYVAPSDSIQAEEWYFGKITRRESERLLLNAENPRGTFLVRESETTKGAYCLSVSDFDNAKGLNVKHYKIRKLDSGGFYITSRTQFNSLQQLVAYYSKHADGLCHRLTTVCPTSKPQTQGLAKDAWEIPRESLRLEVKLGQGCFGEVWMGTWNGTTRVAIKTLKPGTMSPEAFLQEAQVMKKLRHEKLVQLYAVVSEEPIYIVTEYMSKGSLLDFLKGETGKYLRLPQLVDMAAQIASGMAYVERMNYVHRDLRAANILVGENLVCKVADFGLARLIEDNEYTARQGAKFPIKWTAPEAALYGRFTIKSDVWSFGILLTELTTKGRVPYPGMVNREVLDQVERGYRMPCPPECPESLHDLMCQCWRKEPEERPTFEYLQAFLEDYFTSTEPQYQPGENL
Chain of Btk enzyme (His-Btk) (Q06187 whole entry): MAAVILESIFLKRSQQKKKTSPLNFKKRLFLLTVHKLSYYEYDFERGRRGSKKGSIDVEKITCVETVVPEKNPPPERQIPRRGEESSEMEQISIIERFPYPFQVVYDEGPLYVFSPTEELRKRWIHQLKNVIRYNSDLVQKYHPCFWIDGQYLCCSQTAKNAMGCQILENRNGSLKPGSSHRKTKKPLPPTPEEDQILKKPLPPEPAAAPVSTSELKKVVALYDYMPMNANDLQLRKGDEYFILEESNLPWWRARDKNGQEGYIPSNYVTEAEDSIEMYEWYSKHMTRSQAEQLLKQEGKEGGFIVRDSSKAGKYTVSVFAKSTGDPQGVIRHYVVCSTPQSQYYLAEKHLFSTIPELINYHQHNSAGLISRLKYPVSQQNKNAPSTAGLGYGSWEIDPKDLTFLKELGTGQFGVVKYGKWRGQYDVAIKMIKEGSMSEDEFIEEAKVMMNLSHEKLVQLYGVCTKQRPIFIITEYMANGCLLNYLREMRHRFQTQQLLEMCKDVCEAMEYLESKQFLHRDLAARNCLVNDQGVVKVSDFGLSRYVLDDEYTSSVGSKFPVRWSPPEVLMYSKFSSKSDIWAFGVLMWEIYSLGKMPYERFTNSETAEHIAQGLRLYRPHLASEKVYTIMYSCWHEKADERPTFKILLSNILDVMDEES
Chain of Lyn enzyme (P07948 whole entry): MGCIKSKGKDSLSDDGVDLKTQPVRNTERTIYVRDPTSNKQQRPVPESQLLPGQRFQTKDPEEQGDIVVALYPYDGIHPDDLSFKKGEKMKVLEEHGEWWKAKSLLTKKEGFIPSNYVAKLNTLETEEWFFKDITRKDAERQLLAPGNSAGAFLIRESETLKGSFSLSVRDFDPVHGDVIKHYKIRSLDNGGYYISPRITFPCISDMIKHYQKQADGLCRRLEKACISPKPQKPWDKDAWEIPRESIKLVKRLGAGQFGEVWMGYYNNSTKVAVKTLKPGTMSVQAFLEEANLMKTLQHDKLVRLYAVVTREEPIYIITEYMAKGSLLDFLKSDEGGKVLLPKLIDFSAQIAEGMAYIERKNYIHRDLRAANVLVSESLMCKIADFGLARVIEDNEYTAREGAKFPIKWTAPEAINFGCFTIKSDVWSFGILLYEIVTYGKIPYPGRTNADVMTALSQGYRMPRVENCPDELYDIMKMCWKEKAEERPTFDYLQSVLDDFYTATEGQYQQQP

| SMILES | EC50 (Lyn enzyme; [1]) | EC50 (Src enzyme; [2]) | EC50 (FynT enzyme) | EC50 (Btk enzyme (His-Btk); [3]) | EC50 (Lck enzyme; [4]) | EC50 (Btk enzyme (His-Btk)) | EC50 Btk activity values (Btk enzyme (His-Btk); [5]) | EC50 (Lck enzyme) | EC50 Lck activity values (Lck enzyme; IMAP, 60 min pre-incubation, 6 μM ATP, bin bound in μM) | EC50 (Lyn enzyme; EC50 Lyn activity values, 60 min pre-incubation, 2 μM ATP, bin bound in μM) | EC50 (Src enzyme) | EC50 Btk activity values (Btk enzyme (His-Btk); [6]) |
| --- | --- | --- | --- | --- | --- | --- | --- | --- | --- | --- | --- | --- |
| Nc1nccn2c([C@@H]3CCCN3C(=O)c3ccnc(Cl)n3)nc(-c3ccc(C(=O)Nc4nc5c(s4)CCCC5)cc3)c12 [Example 71, (S)-4-(8-amino-3-(1-(2-chloropyrimidine-4-carbonyl)pyrrolidin-2-yl)imidazo[1,5-a]pyrazin-1-yl)-N-(4,5,6,7-tetrahydrobenzo[d]thiazol-2-yl)benzamide] | ≥ 1 µM | ≥ 1000 nM | ≥ 1000 nM |  | ≥ 1 µM | 10 to 100 nM | <100 nM |  |  |  |  |  |
| CC#CC(=O)N1CCCC[C@H]1c1nc(-c2ccc(C(=O)Nc3cc(CCC)ccn3)cc2)c2c(N)nccn12 [Example 64, (S)-4-(8-amino-3-(1-but-2-ynoylpiperidin-2-yl)imidazo[1,5-a]pyrazin-1-yl)-N-(4-propylpyridin-2-yl)benzamide] | ≥ 1 µM | ≥ 1000 nM | ≥ 1000 nM | < 10 nM |  |  |  | 0.1 to 1 µM | <1 µM |  |  |  |
| CCCc1ccnc(NC(=O)c2ccc(-c3nc([C@@H]4CCCN4C(=O)c4ccnc(Cl)n4)n4ccnc(N)c34)cc2)c1 [Example 79, (S)-4-(8-amino-3-(1-(2-chloropyrimidine-4-carbonyl)pyrrolidin-2-yl)imidazo[1,5-a]pyrazin-1-yl)-N-(4-propylpyridin-2-yl)benzamide] | ≥ 1 µM | ≥ 1000 nM | ≥ 1000 nM | < 10 nM | ≥ 1 µM |  |  |  |  |  |  |  |
| C=CC(=O)N1CCCC[C@H]1c1nc(-c2ccc(C(=O)Nc3cc(F)ccn3)cc2)c2c(N)nccn12 [Example 17, (S)-4-(3-(1-Acryloylpiperidin-2-yl)-8-aminoimidazo[1,5-a]pyrazin-1-yl)-N-(4-fluoropyridin-2-yl)benzamide] | ≥ 1 µM | ≥ 1000 nM | ≥ 1000 nM | < 10 nM | ≥ 1 µM |  |  |  |  |  |  |  |
| Nc1nccn2c([C@@H]3CCCN3C(=O)/C=C/CN3CCCC3)nc(-c3ccc(C(=O)Nc4ccccn4)cc3)c12 [Example 2, (S,E)-4-(8-amino-3-(1-(4-(pyrrolidin-1-yl)but-2-enoyl)pyrrolidin-2-yl)imidazo[1,5-a]pyrazin-1-yl)-N-(pyridin-2-yl)benzamide] |  |  | ≥ 1000 nM |  |  | 10 to 100 nM | <100 nM | ≥ 1 µM |  | ≥ 1 µM | ≥ 1000 nM |  |
| C=CS(=O)(=O)N1CCCC[C@H]1c1nc(-c2ccc(C(=O)Nc3cc(C(F)(F)F)ccn3)cc2)c2c(N)nccn12 [Example 19, (S)-4-(8-Amino-3-(1-(vinylsulfonyl)piperidin-2-yl)imidazo[1,5-a]pyrazin-1-yl)-N-(4-(trifluoromethyl)pyridin-2-yl)benzamide] | ≥ 1 µM | ≥ 1000 nM | ≥ 1000 nM | < 10 nM | ≥ 1 µM |  |  |  |  |  |  |  |
| CC#CC(=O)NCc1nc(-c2ccc(C(=O)Nc3ccccn3)cc2)c2c(N)nccn12 [Example 112, 4-(8-amino-3-(but-2-ynamidomethyl)imidazo[1,5-a]pyrazin-1-yl)-N-(pyridin-2-yl)benzamide] | ≥ 1 µM | ≥ 1000 nM | ≥ 1000 nM |  | ≥ 1 µM | 10 to 100 nM | <100 nM |  |  |  |  |  |
| COC/C=C/C(=O)N1CCCC[C@H]1c1nc(-c2ccc(C(=O)Nc3ccccn3)cc2C)c2c(N)nccn12 [Example 85, 4-(8-amino-3-((S)-1-((E)-4-methoxybut-2-enoyl)piperidin-2-yl)imidazo[1,5-a]pyrazin-1-yl)-3-methyl-N-(pyridin-2-yl)benzamide] | ≥ 1 µM | ≥ 1000 nM | ≥ 1000 nM |  | ≥ 1 µM | 100 to 1000 nM |  |  |  |  |  | <1000 nM |

Other lines, results leading:

| EC50 (Lyn enzyme; [1]) | EC50 (Src enzyme; [2]) | EC50 (FynT enzyme) | EC50 (Btk enzyme (His-Btk); [3]) | EC50 (Lck enzyme; [4]) | EC50 (Btk enzyme (His-Btk)) | EC50 Btk activity values (Btk enzyme (His-Btk); [5]) | EC50 (Lck enzyme) | EC50 Lck activity values (Lck enzyme; IMAP, 60 min pre-incubation, 6 μM ATP, bin bound in μM) | EC50 (Lyn enzyme; EC50 Lyn activity values, 60 min pre-incubation, 2 μM ATP, bin bound in μM) | EC50 (Src enzyme) | EC50 Btk activity values (Btk enzyme (His-Btk); [6]) | SMILES |
| --- | --- | --- | --- | --- | --- | --- | --- | --- | --- | --- | --- | --- |
| ≥ 1 µM | ≥ 1000 nM | ≥ 1000 nM | < 10 nM | ≥ 1 µM |  |  |  |  |  |  |  | C=CC(=O)N1CCCC[C@H]1c1nc(-c2ccc(C(=O)Nc3cc(C#N)ccn3)cc2)c2c(N)nccn12 [Example 18, (S)-4-(3-(1-Acryloylpiperidin-2-yl)-8-aminoimidazo[1,5-a]pyrazin-1-yl)-N-(4-cyanopyridin-2-yl)benzamide] |
| ≥ 1 µM | ≥ 1000 nM | ≥ 1000 nM | < 10 nM | ≥ 1 µM |  |  |  |  |  |  |  | CC(C)(O)C#CC(=O)N1CCC[C@H]1c1nc(-c2ccc(C(=O)Nc3ccccn3)cc2)c2c(N)nccn12 [Example 32, (S)-4-(8-Amino-3-(1-(4-hydroxy-4-methylpent-2-ynoyl)pyrrolidin-2-yl)imidazo[1,5-a]pyrazin-1-yl)-N-(pyridin-2-yl)benzamide] |
| ≥ 1 µM | ≥ 1000 nM | ≥ 1000 nM | < 10 nM | ≥ 1 µM |  |  |  |  |  |  |  | CCCc1ccnc(NC(=O)c2ccc(-c3nc([C@@H]4CCCCN4C(=O)c4ccnc(Cl)n4)n4ccnc(N)c34)cc2)c1 [Example 107, (S)-4-(8-amino-3-(1-(2-chloropyrimidine-4-carbonyl)piperidin-2-yl)imidazo[1,5-a]pyrazin-1-yl)-N-(4-propylpyridin-2-yl)benzamide] |
| ≥ 1 µM | ≥ 1000 nM | ≥ 1000 nM | < 10 nM | ≥ 1 µM |  |  |  |  |  |  |  | CCC#CC(=O)N1CCC[C@H]1c1nc(-c2ccc(C(=O)Nc3ccccn3)cc2)c2c(N)nccn12 [Example 34, (S)-4-(8-Amino-3-(1-pent-2-ynoylpyrrolidin-2-yl)imidazo[1,5-a]pyrazin-1-yl)-N-(pyridin-2-yl)benzamide] |
| ≥ 1 µM | ≥ 1000 nM | ≥ 1000 nM |  | ≥ 1 µM | 10 to 100 nM | <100 nM |  |  |  |  |  | COC/C=C/C(=O)N1CCCCC[C@H]1c1nc(-c2ccc(C(=O)Nc3ccccn3)cc2)c2c(N)nccn12 [Example 97, (E)-4-(8-amino-3-(1-(4-methoxybut-2-enoyl)azepan-2-yl)imidazo[1,5-a]pyrazin-1-yl)-N-(pyridin-2-yl)benzamide] |
| ≥ 1 µM | ≥ 1000 nM | ≥ 1000 nM |  | ≥ 1 µM | 10 to 100 nM | <100 nM |  |  |  |  |  | CC#CC(=O)N(C)[C@@H](C)c1nc(-c2ccc(C(=O)Nc3cc(CCC)ccn3)cc2)c2c(N)nccn12 [Example 113, (S)-4-(8-amino-3-(1-(N-methylbut-2-ynamido)ethyl)imidazo[1,5-a]pyrazin-1-yl)-N-(4-propylpyridin-2-yl)benzamide] |
| ≥ 1 µM | ≥ 1000 nM | ≥ 1000 nM | < 10 nM | ≥ 1 µM |  |  |  |  |  |  |  | CC#CC(=O)N1CCCC[C@H]1c1nc(-c2ccc(C(=O)Nc3cc(C(F)(F)F)ccn3)cc2)c2c(N)nccn12 [Example 63, (S)-4-(8-amino-3-(1-but-2-ynoylpiperidin-2-yl)imidazo[1,5-a]pyrazin-1-yl)-N-(4-(trifluoromethyl)pyridin-2-yl)benzamide] |
| ≥ 1 µM | ≥ 1000 nM | ≥ 1000 nM |  | ≥ 1 µM | 100 to 1000 nM |  |  |  |  |  | <1000 nM | CCCc1ccnc(NC(=O)c2ccc(-c3nc([C@@H]4CCCN4C(=O)/C=C/COC)n4ccnc(N)c34)c(C)c2)c1 [Example 87, 4-(8-amino-3-((S)-1-((E)-4-methoxybut-2-enoyl)pyrrolidin-2-yl)imidazo[1,5-a]pyrazin-1-yl)-3-methyl-N-(4-propylpyridin-2-yl)benzamide] |
